tested on: mutant HIV-1 with I84V/L90M mutations; assay type: cell-based; details: I84V/L90M mutant

SMILES | I84V/L90M fold change
COc1ccc(S(=O)(=O)N(CC(C)C)CC(O)C(Cc2ccc(OCc3ccccc3)cc2)NC(=O)OC2COC3OCCC23)cc1 (stereo not drawn) | − (≦3)
COc1ccc(S(=O)(=O)N(CCN(C)C)CC(O)C(Cc2ccc(O)cc2)NC(=O)OC2COC3OCCC23)cc1 (stereo not drawn) | − (≦3)
COc1ccc(S(=O)(=O)N(CCN(C)C)CC(O)C(Cc2ccc(OCc3ccccc3)cc2)NC(=O)OC2COC3OCCC23)cc1 (stereo not drawn) | − (≦3)
CCOC(=O)C(C)OP(=O)(Cc1ccc2c(c1)CCN(C[C@H](NC(=O)O[C@H]1CO[C@H]3OCC[C@H]31)[C@H](O)CN(CC(C)C)S(=O)(=O)c1ccc(OC)cc1)C2)Oc1ccccc1 (stereo partly drawn) | + (>3 to ≦10)
Cc1cccc(C)c1OCC(=O)NC(Cc1ccc(OCP(=O)(O)O)cc1)C(O)CN(CC(C)C)S(=O)(=O)c1ccc(N)cc1 (stereo not drawn) | − (≦3)
Cc1cccc(C)c1OCC(=O)NC(Cc1ccc(OCP(=O)(OCc2ccccc2)OCc2ccccc2)cc1)C(O)CN(CC(C)C)S(=O)(=O)c1ccc(N)cc1 (stereo not drawn) | − (≦3)
Cc1ccc(C(=O)NC(Cc2ccc(OCP(=O)(OCc3ccccc3)OCc3ccccc3)cc2)C(O)CN(CC(C)C)S(=O)(=O)c2ccc(N)cc2)cc1O (stereo not drawn) | + (>3 to ≦10)
CC(C)CN(CC(O)C(Cc1ccc(OCP(=O)(O)O)cc1)NC(=O)OC1COC2OCCC12)S(=O)(=O)c1ccc(N)cc1 (stereo not drawn) | − (≦3)
CCOP(=O)(COc1ccc(CC(NC(=O)OC2COC3OCCC23)C(O)CN(CC(C)C)S(=O)(=O)c2ccc(N)cc2)cc1)OCC (stereo not drawn) | − (≦3)
CCOP(=O)(COc1ccc(CC(NC(=O)OC2COC3OCCC23)C(O)CN(CC(C)C)S(=O)(=O)c2ccc([N+](=O)[O-])cc2)cc1)OCC (stereo not drawn) | − (≦3)
CCNc1ccc(S(=O)(=O)N(CC(C)C)CC(O)C(Cc2ccc(OCP(=O)(OCC)OCC)cc2)NC(=O)OC2COC3OCCC23)cc1 (stereo not drawn) | − (≦3)
CC(C)CN(CC(O)C(Cc1ccc(OCP(=O)(OCc2ccccc2)OCc2ccccc2)cc1)NC(=O)OC1COC2OCCC12)S(=O)(=O)c1ccc(N)cc1 (stereo not drawn) | − (≦3)
CC(C)CN(CC(O)C(Cc1ccc(OCP(=O)(O)O)cc1)NC(=O)OC1COC2OCCC12)S(=O)(=O)c1cccc(N)c1 (stereo not drawn) | − (≦3)
CCOP(=O)(COc1ccc(CC(NC(=O)OC2COC3OCCC23)C(O)CN(CC(C)C)S(=O)(=O)c2cccc(N)c2)cc1)OCC (stereo not drawn) | − (≦3)
CC(C)CN(CC(O)C(Cc1ccc(OCP(=O)(OCc2ccccc2)OCc2ccccc2)cc1)NC(=O)OC1COC2OCCC12)S(=O)(=O)c1cccc(N)c1 (stereo not drawn) | − (≦3)
CCCCOC(=O)C(C)OP(=O)(COc1ccc(CC(NC(=O)OC2COC3OCCC23)C(O)CN(CC(C)C)S(=O)(=O)c2cccc(N)c2)cc1)Oc1ccccc1 (stereo not drawn) | − (≦3)
CC(C)CN(CC(O)C(Cc1ccc(OCP(=O)(OCc2ccccc2)OCc2ccccc2)cc1)NC(=O)OC1COC2OCCC12)S(=O)(=O)c1ccccc1 (stereo not drawn) | + (>3 to ≦10)
CC(C)CN(CC(O)C(Cc1ccc(OCP(=O)(OCc2ccccc2)OCc2ccccc2)cc1)NC(=O)OC1COC2OCCC12)S(=O)(=O)c1ccc(C(F)(F)F)cc1 (stereo not drawn) | − (≦3)
CC(C)CN(CC(O)C(Cc1ccc(OCP(=O)(OCc2ccccc2)OCc2ccccc2)cc1)NC(=O)OC1COC2OCCC12)S(=O)(=O)c1ccc(C#N)cc1 (stereo not drawn) | − (≦3)
CC(C)CN(CC(O)C(Cc1ccccc1)NC(=O)OC1COC2OCCC12)S(=O)(=O)c1ccc(O)cc1 (stereo not drawn) | − (≦3)
CC(C)CN(CC(O)C(Cc1ccccc1)NC(=O)OC1COC2OCCC12)S(=O)(=O)c1ccc(OCP(=O)(O)O)cc1 (stereo not drawn) | − (≦3)
COc1ccc(S(=O)(=O)N(CC(C)C)CC(O)C(Cc2ccccc2)NC(=O)OC2COC3OCCC23)cc1O (stereo not drawn) | − (≦3)
COc1ccc(S(=O)(=O)N(CC(C)C)CC(O)C(Cc2ccccc2)NC(=O)OC2COC3OCCC23)cc1OCP(=O)(O)O (stereo not drawn) | − (≦3)
CCOP(=O)(COc1cc(S(=O)(=O)N(CC(C)C)CC(O)C(Cc2ccccc2)NC(=O)OC2COC3OCCC23)ccc1O)OCC (stereo not drawn) | − (≦3)
CC(C)CN(C[C@@H](O)[C@H](Cc1ccc(OCP(=O)(Oc2ccccc2)Oc2ccccc2)cc1)NC(=O)OC1CCOC1)S(=O)(=O)c1ccc(N)cc1 (stereo partly drawn) [NH2, phenol] | − (≦3)
CC(C)CN(CC(O)C(Cc1ccc(O)cc1)NC(=O)OC1COC2OCCC12)S(=O)(=O)c1cccc(N)c1 (stereo not drawn) [OH, m-NH2] | − (≦3)
CC(C)CN(CC(O)C(Cc1ccc(O)cc1)NC(=O)OC1COC2OCCC12)S(=O)(=O)c1ccc(N)cc1 (stereo not drawn) [OH, p-NH2] | − (≦3)
COc1ccc(S(=O)(=O)N(CC(C)C)C[C@@H](O)[C@H](Cc2ccc(OCP(=O)(O)O)cc2)NC(=O)OC2CCOC2)cc1 (stereo partly drawn) [OMe, OH] | +++ (>30)
COc1ccc(S(=O)(=O)N(CC(C)C)C[C@@H](O)[C@H](Cc2ccc(OCP(=O)(Oc3ccccc3)Oc3ccccc3)cc2)NC(=O)OC2CCOC2)cc1 (stereo partly drawn) [OMe, phenol] | + (>3 to ≦10)

same assay, conditions: fold difference in EC50 vs wild type, class symbols

SMILES | I84V/L90M fold change
CCOP(=O)(CN1CC=C(CC(NC(=O)OC2COC3OCCC23)C(O)CN(CC(C)C)S(=O)(=O)c2ccc(OC)cc2)CC1)OCC (stereo not drawn) | + (>3 to ≦10)
COc1ccc(S(=O)(=O)N(CC(C)C)CC(O)C(CC2=CCN(CCP(=O)(OCc3ccccc3)OCc3ccccc3)CC2)NC(=O)OC2COC3OCCC23)cc1 (stereo not drawn) | + (>3 to ≦10)
CCOP(=O)(CCC1=CCN(CC(NC(=O)OC2COC3OCCC23)C(O)CN(CC(C)C)S(=O)(=O)c2ccc(OC)cc2)CC1)OCC (stereo not drawn) | + (>3 to ≦10)
CCOP(=O)(Cc1ccc(NCC(NC(=O)OC2COC3OCCC23)C(O)CN(CC(C)C)S(=O)(=O)c2ccc(OC)cc2)cc1)OCC (stereo not drawn) | + (>3 to ≦10)
CCOP(=O)(Cc1ccc(N(C)CC(NC(=O)OC2COC3OCCC23)C(O)CN(CC(C)C)S(=O)(=O)c2ccc(OC)cc2)cc1)OCC (stereo not drawn) | + (>3 to ≦10)
CCOP(=O)(OCC)c1ccc(CN(C)CC(NC(=O)OC2COC3OCCC23)C(O)CN(CC(C)C)S(=O)(=O)c2ccc(OC)cc2)cc1 (stereo not drawn) | − (≦3)
CCOP(=O)(Cc1ccc2c(c1)CCN(CC(NC(=O)OC1COC3OCCC13)C(O)CN(CC(C)C)S(=O)(=O)c1ccc(OC)cc1)C2)OCC (stereo not drawn) | + (>3 to ≦10)
CCOP(=O)(CNc1ccc(CC(NC(=O)OC2COC3OCCC23)C(O)CN(CC(C)C)S(=O)(=O)c2ccc(OC)cc2)cc1)OCC (stereo not drawn) | − (≦3)
COc1ccc(S(=O)(=O)N(CC(C)C)CC(O)C(Cc2ccc(NCP(=O)(OCc3ccccc3)OCc3ccccc3)cc2)NC(=O)OC2COC3OCCC23)cc1 (stereo not drawn) | − (≦3)
COC(=O)N[C@H](C(=O)N[C@@H](Cc1ccccc1)[C@@H](O)CN(Cc1ccc(-c2ccccn2)cc1)NC(=O)[C@@H](NC(=O)OC)C(C)(C)C)C(C)(C)C [Atazanavir, reference compound] | +++ (>30)
COc1ccc(S(=O)(=O)N(CC(C)C)CC(O)C(Cc2ccc(OCP(=O)(OCc3ccccc3)OCc3ccccc3)cc2)NC(=O)OC2COC3OCCC23)cc1 (stereo not drawn) [drawing 602 R1=OBn R2=OBn] | − (≦3)
CCOP(=O)(COc1ccc(CC(NC(=O)OC2COC3OCCC23)C(O)CN(CC(C)C)S(=O)(=O)c2ccc(OC)cc2)cc1)OCC (stereo not drawn) [drawing 602 R1=OEt R2=OEt] | − (≦3)
COc1ccc(S(=O)(=O)N(CC(C)C)CC(O)C(Cc2ccc(OCP(=O)(O)O)cc2)NC(=O)OC2COC3OCCC23)cc1 (stereo not drawn) [drawing 602 R1=OH R2=OH] | − (≦3)

Reference: US20070190523A1 (priority 2002, published 2007)
